Source: patent US9126999B2, “Tetrahydropyrazolopyrimidine compounds” (EISAI R&D MANAGEMENT CO., LTD., priority 2012, dated 2015)
Read-outs that look alike come from different tables or passages of the source.

Biological target: T1, Human TLR8 (Homo sapiens, UniProt Q9NR97)
T1 construct: host or cells: HEK-293 stably expressing human TLR8, then transfected with pNiFty2(NF-kappaB)-luciferase
T1 sequence (Q9NR97 27-1041): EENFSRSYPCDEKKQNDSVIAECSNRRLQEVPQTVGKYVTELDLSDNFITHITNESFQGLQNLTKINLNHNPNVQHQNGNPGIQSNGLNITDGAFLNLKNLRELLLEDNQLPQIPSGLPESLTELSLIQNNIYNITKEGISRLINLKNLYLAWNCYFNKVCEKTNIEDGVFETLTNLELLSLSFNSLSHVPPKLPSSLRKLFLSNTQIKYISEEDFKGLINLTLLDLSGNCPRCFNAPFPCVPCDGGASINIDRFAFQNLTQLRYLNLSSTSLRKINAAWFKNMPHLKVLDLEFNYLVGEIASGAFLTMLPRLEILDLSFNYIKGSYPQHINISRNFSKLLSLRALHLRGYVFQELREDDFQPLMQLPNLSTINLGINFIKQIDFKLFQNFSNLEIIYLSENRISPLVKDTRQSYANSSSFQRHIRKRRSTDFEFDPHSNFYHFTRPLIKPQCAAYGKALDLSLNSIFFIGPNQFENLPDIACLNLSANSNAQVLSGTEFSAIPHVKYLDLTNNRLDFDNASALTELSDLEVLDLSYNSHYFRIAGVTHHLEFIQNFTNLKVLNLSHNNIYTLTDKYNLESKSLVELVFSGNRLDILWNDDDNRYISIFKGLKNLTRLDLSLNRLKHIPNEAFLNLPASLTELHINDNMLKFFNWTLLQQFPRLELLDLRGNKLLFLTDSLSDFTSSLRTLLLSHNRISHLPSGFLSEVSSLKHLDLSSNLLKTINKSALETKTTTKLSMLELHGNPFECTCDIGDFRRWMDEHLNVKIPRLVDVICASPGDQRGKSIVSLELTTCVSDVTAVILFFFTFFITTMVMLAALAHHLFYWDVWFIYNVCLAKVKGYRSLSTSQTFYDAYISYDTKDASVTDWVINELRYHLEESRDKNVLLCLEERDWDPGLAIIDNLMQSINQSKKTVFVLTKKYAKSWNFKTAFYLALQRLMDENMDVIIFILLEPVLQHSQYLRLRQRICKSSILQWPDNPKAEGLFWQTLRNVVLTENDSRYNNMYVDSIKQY
Assay: HEK-293 NF-kappaB luciferase reporter assay, CL097 stimulus
Format: cell-based
Text: In vitro pharmacology: HEK-293 cells (ATCC) were engineered to stably express a NF-kappaB transcription factor inducible E-selectin (ELAM-1) luciferase reporter derived from the plasmid pGL3 (Promega) containing base pairs −2241 bp to −254 bp from the promoter of the human E-selectin gene (Accession No. NM_000450). These cells were then subsequently engineered to stably and individually express human TLR4, TLR7 or TLR9 full-length ORF cDNAs. Human TLR4 cDNA (Accession No. NM_138554) was cloned into pcDNA 3.0 expression vector (Invitrogen). TLR4 transfected cells were also engineered to express human MD-2 co-receptor [MD-2 cDNA (Accession No. NM_015364) was cloned into the pEF-BOS vector] and were supplemented with 10 nM soluble CD14 (R&D Systems) in the media to optimize LPS responsiveness. Human TLR9 cDNA (Accession No. NM_017442) was cloned into the pBluescript II KS vector (Agilent). Human TLR7 cDNA (Accession No. NM_016562) was obtained from OriGene. HEK-293 cells stably expressing human TLR8 (Accession No. NM_138636) or mouse TLR7 (Accession No. NM_133211) were purchased from InvivoGen and were then stably transfected with pNiFty2(NF-kappaB)-luciferase reporter plasmid (InvivoGen). Each cell type was plated in Dulbecco's modified Eagle's medium (DMEM) containing 10% fetal bovine serum (FBS) at a density of 2.22×10^5 cells/ml into a 384-well plate and incubated for 2 days at 37° C., 5% CO2. Varying concentrations of antagonist compounds were then added. Cells were then incubated for another 30 minutes before adding the appropriate TLR agonist as follows (final concentrations indicated): lipopolysaccharide (LPS; Sigma) at 10 ng/ml for TLR4, CL097 (InvivoGen) at 3 ug/ml for human TLR7 and TLR8 and mouse TLR7, and CpG-2006-2A [sequence: […] (SEQ ID NO: 1) with phosphorothioate backbone, synthesized by Sigma-Aldrich] at 0.6 uM for TLR9.

[1] = human TLR8 in the HEK-293 assay format, read-out: HEK/TLR8 IC50

| IC50 [1] [nM] | SMILES | IC50 (HEK-293, ligand CL097, analyte NFkB-luciferase, read-out: IC50) [nM] |
| --- | --- | --- |
| 280 | COc1ccc([C@@H]2C[C@H](C(F)(F)F)n3nc(-c4ccncc4)cc3N2)cc1OC [ER-885454] | – |
| – | COc1ccc([C@@H]2C[C@H](C(F)(F)F)n3nc(-c4ccc(C(=O)N5CCNCC5)cc4)cc3N2)cc1OC [ER-892887, (4-((5S,7R)-5-(3,4-dimethoxyphenyl)-7-(trifluoromethyl)-4,5,6,7-tetrahydropyrazolo[1,5-a]pyrimidin-2-yl)phenyl)(piperazin-1-yl)methanone] | 80 |
| 320 | Cc1nn(C)cc1[C@@H]1C[C@H](C(F)(F)F)n2nc(-c3ccc(NC(N)=O)cc3)cc2N1 [ER-894595] | – |
| 540 | Cc1nn(C)cc1[C@H]1C[C@@H](C(F)(F)F)n2nc(-c3ccc(NC(N)=O)cc3)cc2N1 [ER-894596] | – |
